Literature values in patent US8992947B2, “Method for predicting therapeutic effect of chemotherapy on renal cell cancer” (Taiho Pharmaceutical Co., Ltd., priority 2009, dated 2015).

Tested on: renal cell carcinoma
Settings: most effective agent in summary of 83 clinical test results

Structure (SMILES) | response rate [%]
O=c1[nH]cc(F)c(=O)[nH]1 [5-fluorouracil (5-FU), 5-fluorouracil] | 13.4
O=c1[nH]c(=O)n([C@H]2C[C@H](O)[C@@H](CO)O2)cc1F [floxuridine] | 13.4
